Laboratory results published in patent US5496844A, “Indole derivatives” (Otsuka Pharmaceutical Factory, Inc., priority 1992, dated 1996).

Biological target: T1, rat uterus cytoplasm estrogen receptor (Rattus norvegicus, UniProt P06211)
T1 construct: the homogenate was centrifuged to give a cytoplasm fraction; from tissue; host or cells: uterus of female SD rats aged 3 to 4 weeks, cytoplasm fraction
T1 sequence (P06211 1-600): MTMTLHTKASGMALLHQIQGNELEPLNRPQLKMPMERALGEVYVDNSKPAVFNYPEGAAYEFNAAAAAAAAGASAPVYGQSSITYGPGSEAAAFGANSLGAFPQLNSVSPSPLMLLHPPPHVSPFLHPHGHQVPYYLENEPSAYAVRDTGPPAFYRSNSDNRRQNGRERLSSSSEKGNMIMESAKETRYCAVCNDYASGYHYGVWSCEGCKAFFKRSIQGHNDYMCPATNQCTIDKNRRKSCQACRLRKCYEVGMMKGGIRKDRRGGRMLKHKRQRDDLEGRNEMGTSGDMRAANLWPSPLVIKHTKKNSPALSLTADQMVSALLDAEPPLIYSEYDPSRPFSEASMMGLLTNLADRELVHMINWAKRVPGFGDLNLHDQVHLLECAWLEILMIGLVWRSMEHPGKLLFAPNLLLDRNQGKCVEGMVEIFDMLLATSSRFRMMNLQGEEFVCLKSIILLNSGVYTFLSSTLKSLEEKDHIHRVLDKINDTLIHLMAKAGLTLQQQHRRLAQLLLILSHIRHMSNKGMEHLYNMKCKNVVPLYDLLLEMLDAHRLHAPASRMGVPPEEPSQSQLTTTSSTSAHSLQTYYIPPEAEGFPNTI
Test: inhibition of specific binding of [3H]-moxestrol to rat uterus cytoplasm estrogen receptor
Parameters: species or system rat (female SD)
Details: relative to moxestrol as control compound; rat uterus cytoplasm fraction; 4° C., 16 hours; DCC method
Method: Test for inhibitory activity against the specific binding of [^3 H]-moxestrol to the rat uterus cytoplasm estrogen receptor
The above activity was measured essentially as described in the literature [J. Biol. Chem., 258 (5), 3173 (1973) and Biochem. Pharmacol., 43 (12), 2511 (1992)].
Thus, the uterus was excised from female SD rats aged 3 to 4 weeks and homogenized in 6 volumes of TETG buffer (10 mM Tris-hydrochloride, 1 mM EDTA, 12 mM thioglycerol and 10% glycerol) and the homogenate was centrifuged to give a cytoplasm fraction. ^3 H-Moxestrol and each test compound were added to this cytoplasm fraction and each mixture was incubated at 4° C. for 16 hours to allow binding to the estrogen receptor in the cytoplasm fraction.
Then, the free form of ^3 H-moxestrol was removed by the DCC method and the bound form of ^3 H-moxestrol was quantitated using a liquid scintillation counter.
Moxestrol was used as a control compound and the relative binding affinity (RBA), which was defined as the ^3 H-moxestrol binding inhibiting effect (IC50) ratio, was determined as follows: [formula]
The thus-obtained RBA values for the respective test compounds are shown below in Table 21.

Row | RBA (relative binding affinity, 3H-moxestrol binding inhibiting effect (IC50) ratio) [%] | Structure (SMILES)
1 | 116 | CSc1ccc(-c2c(C)c3cc(O)ccc3n2CCCCCCCCNC2CCC2)cc1 [Example 280]
2 | 121 | CSc1ccc(-c2c(C)c3cc(O)ccc3n2CCCCCCCCN2CCCC2)cc1 [Example 281, 5-hydroxy-3-methyl-2-(4-methylthiophenyl)-1-[8-(1-pyrrolidinyl)octyl]indole]
3 | 51 | CCSc1ccc(-c2cc3cc(O)ccc3n2CCCCCCCCNC(C)C)cc1 [Example 286]
4 | 114 | CSc1ccc(-c2c(C)c3cc(O)ccc3n2CCCCCCCCNC(C)(C)C)cc1 [Example 282]
5 | 42 | CSc1ccc(-c2c(C)c3cc(O)ccc3n2CCCCCCNC(C)c2ccccc2)cc1 (stereo not drawn) [Example 312, 5-hydroxy-3-methyl-2-(4-methylthiophenyl)-1-[6-(1-phenylethyl)aminohexyl]indole]
6 | 70 | CSc1ccc(-c2c(C)c3cc(O)ccc3n2CCCCCCN2CCSC2)cc1 [Example 291]
7 | 82 | CSc1ccc(-c2c(C)c3cc(O)ccc3n2CCCCCCCCN(C)C)cc1 [Example 279]
8 | 65 | CSc1ccc(-c2c(C)c3cc(O)ccc3n2CCCCCCCCNC(C)C)cc1 [Example 274]
9 | 93 | CSc1ccc(-c2c(C)c3cc(O)ccc3n2CCCCCCCCN2CCCCC2)cc1 [Example 285]

The remaining lines, values behind:

Row | Structure (SMILES) | RBA (relative binding affinity, 3H-moxestrol binding inhibiting effect (IC50) ratio) [%]
10 | O=C(c1ccc(OCCN2CCCCC2)cc1)n1c(-c2ccc(Sc3ccccc3)cc2)cc2cc(O)ccc21 [Example 236] | 53
11 | CSc1ccc(-c2c(C)c3cc(O)ccc3n2CCCCCCCC(=O)N(C)C)cc1 [Example 253] | 94
12 | CSc1ccc(-c2c(C)c3cc(O)ccc3n2CCCCCCCC(=O)NC(C)(C)C)cc1 [Example 255] | 41
13 | CSc1ccc(-c2c(C)c3cc(O)ccc3n2CCCCCCNC2CCCC2)cc1 [Example 172] | 44
14 | O=C(c1ccc(OCCn2cncn2)cc1)n1c(-c2ccc(Sc3ccccc3)cc2)cc2cc(O)ccc21 [Example 246] | 57
15 | CSc1ccc(-c2c(C)c3cc(O)ccc3n2CCCCCCNC(C)(C)C)cc1 [Example 178] | 57
16 | Cc1c(-c2ccc(Sc3ccccc3)cc2)n(CCCCCCNC(C)C)c2ccc(O)cc12 [Example 161] | 46
17 | O=C(c1ccc(OCCN2CCCC2)cc1)n1c(-c2ccc(Sc3ccccc3)cc2)cc2cc(O)ccc21 [Example 234, 5-hydroxy-2-(4-phenylthiophenyl)-1-[4-{2-(1-pyrrolidinyl)ethoxy}benzoyl]indole] | 50
18 | O=C(c1ccc(OCCCN2CCCCC2)cc1)n1c(-c2ccc(Sc3ccccc3)cc2)cc2cc(O)ccc21 [Example 239] | 73
19 | CCC(C)NCCCCCCn1c(-c2ccc(SC)cc2)c(C)c2cc(O)ccc21 (stereo not drawn) [Example 179] | 60
20 | CSc1ccc(-c2c(C)c3cc(O)ccc3n2CCCCCCCC(=O)NC2CCC2)cc1 [Example 254] | 78
21 | CSc1ccc(-c2c(C)c3cc(O)ccc3n2CCCCCCCCN2CCOCC2)cc1 [Example 272] | 48
22 | CCC(C)(C)NCCCCCCn1c(-c2ccc(SC)cc2)c(C)c2cc(O)ccc21 [Example 182] | 57
23 | CSc1ccc(-c2c(C)c3cc(O)ccc3n2CCCCCCNC2CCC2)cc1 [Example 175, 1-(6-cyclobutylaminohexyl)-5-hydroxy-3-methyl-2-(4-methylthiophenyl)indole] | 60
24 | CSc1ccc(-c2c(C)c3cc(O)ccc3n2CCCCCCNCc2ccccc2)cc1 [Example 181] | 52
25 | CSc1ccc(-c2c(C)c3cc(O)ccc3n2CCCCCCNC2CC2)cc1 [Example 176] | 64
26 | O=C(c1ccc(OCCCN2CCCC2)cc1)n1c(-c2ccc(Sc3ccccc3)cc2)cc2cc(O)ccc21 [Example 238] | 49
27 | CSc1ccc(-c2c(C)c3cc(O)ccc3n2CCCCCCCC(=O)N2CCCCC2)cc1 [Example 258] | 41
